Results from the NIST ThermoML archive (doi:10.1021/je900105g).
Where “and” joins values, the source holds several entries; their conditions need not be identical. Identical values can stand only once.

Settings: Liquid, Buoyancy - hydrostatic balance with magnetic suspension - one sinker

Cc1ccccc1 [toluene]
Settings	mass density
293.14 K, 580 kPa	867.3 kg/m3
293.14 K, 2080 kPa	868.44 kg/m3
293.14 K, 2100 kPa	868.49 kg/m3
293.14 K, 4080 kPa	869.92 kg/m3
293.14 K, 6080 kPa	871.41 kg/m3
293.14 K, 8080 kPa	872.84 kg/m3
293.14 K, 10080 kPa	874.27 kg/m3
293.14 K, 10110 kPa	874.35 kg/m3
293.14 K, 15090 kPa	877.74 kg/m3
293.14 K, 15110 kPa	877.83 kg/m3
293.14 K, 20090 kPa	881.09 kg/m3
293.14 K, 20110 kPa	881.18 kg/m3
293.14 K, 25090 kPa	884.33 kg/m3
293.14 K, 25120 kPa	884.42 kg/m3
293.14 K, 30090 kPa	887.47 kg/m3
293.14 K, 30120 kPa	887.56 kg/m3
293.15 K, 2080 kPa	868.48 kg/m3
293.15 K, 4080 kPa	869.98 kg/m3
293.15 K, 6080 kPa	871.45 kg/m3
293.15 K, 8080 kPa	872.9 kg/m3
293.15 K, 10080 kPa	874.33 kg/m3
293.15 K, 15080 kPa	877.8 kg/m3
293.15 K, 20080 kPa	881.15 kg/m3
293.15 K, 25080 kPa	884.39 kg/m3
313.14 K, 590 kPa	848.73 kg/m3
313.14 K, 2090 kPa	850.02 kg/m3
313.14 K, 4090 kPa	851.7 kg/m3
313.14 K, 6090 kPa	853.35 kg/m3
313.14 K, 8090 kPa	854.98 kg/m3
313.14 K, 10090 kPa	856.57 kg/m3
313.14 K, 15090 kPa	860.44 kg/m3
313.14 K, 20090 kPa	864.16 kg/m3
313.14 K, 25090 kPa	867.74 kg/m3
333.14 K, 590 kPa	829.86 kg/m3
333.14 K, 2090 kPa	831.32 kg/m3
333.14 K, 4090 kPa	833.23 kg/m3
333.14 K, 6090 kPa	835.1 kg/m3
333.14 K, 8090 kPa	836.93 kg/m3
333.14 K, 10090 kPa	838.73 kg/m3
333.14 K, 15090 kPa	843.06 kg/m3
333.14 K, 20090 kPa	847.2 kg/m3
333.14 K, 25090 kPa	851.15 kg/m3
333.14 K, 30090 kPa	854.96 kg/m3
353.14 K, 2090 kPa	812.26 kg/m3
353.14 K, 4090 kPa	814.44 kg/m3
353.14 K, 6090 kPa	816.57 kg/m3
353.14 K, 8090 kPa	818.63 kg/m3
353.14 K, 10090 kPa	820.66 kg/m3
353.14 K, 15090 kPa	825.54 kg/m3
353.14 K, 20090 kPa	830.16 kg/m3
353.14 K, 25090 kPa	834.54 kg/m3
353.14 K, 30090 kPa	838.72 kg/m3
373.15 K, 590 kPa	790.76 kg/m3
373.15 K, 2090 kPa	792.7 kg/m3 and 792.76 kg/m3
373.15 K, 4090 kPa	795.21 kg/m3 and 795.27 kg/m3
373.15 K, 6090 kPa	797.64 kg/m3 and 797.7 kg/m3
373.15 K, 8090 kPa	800 kg/m3 and 800.07 kg/m3
373.15 K, 10090 kPa	802.3 kg/m3 and 802.37 kg/m3
373.15 K, 15080 kPa	807.86 kg/m3
373.15 K, 15090 kPa	807.78 kg/m3
373.15 K, 20080 kPa	813.03 kg/m3
373.15 K, 25080 kPa	817.91 kg/m3
373.15 K, 30080 kPa	822.54 kg/m3
373.49 K, 2100 kPa	792.38 kg/m3
373.49 K, 10110 kPa	802.04 kg/m3
373.49 K, 15110 kPa	807.56 kg/m3
373.49 K, 20120 kPa	812.74 kg/m3
373.49 K, 25120 kPa	817.63 kg/m3
373.49 K, 30120 kPa	822.28 kg/m3
